# Target: ATP-binding cassette sub-family C member 2 (Mus musculus, UniProt Q8VI47)
# Assay: (§1) TP_TRANSPORTER: quantitative PCR in vivo, liver of mouse
# Type: functional, organism-based
# Sequence of ATP-binding cassette sub-family C member 2 (Q8VI47 whole entry): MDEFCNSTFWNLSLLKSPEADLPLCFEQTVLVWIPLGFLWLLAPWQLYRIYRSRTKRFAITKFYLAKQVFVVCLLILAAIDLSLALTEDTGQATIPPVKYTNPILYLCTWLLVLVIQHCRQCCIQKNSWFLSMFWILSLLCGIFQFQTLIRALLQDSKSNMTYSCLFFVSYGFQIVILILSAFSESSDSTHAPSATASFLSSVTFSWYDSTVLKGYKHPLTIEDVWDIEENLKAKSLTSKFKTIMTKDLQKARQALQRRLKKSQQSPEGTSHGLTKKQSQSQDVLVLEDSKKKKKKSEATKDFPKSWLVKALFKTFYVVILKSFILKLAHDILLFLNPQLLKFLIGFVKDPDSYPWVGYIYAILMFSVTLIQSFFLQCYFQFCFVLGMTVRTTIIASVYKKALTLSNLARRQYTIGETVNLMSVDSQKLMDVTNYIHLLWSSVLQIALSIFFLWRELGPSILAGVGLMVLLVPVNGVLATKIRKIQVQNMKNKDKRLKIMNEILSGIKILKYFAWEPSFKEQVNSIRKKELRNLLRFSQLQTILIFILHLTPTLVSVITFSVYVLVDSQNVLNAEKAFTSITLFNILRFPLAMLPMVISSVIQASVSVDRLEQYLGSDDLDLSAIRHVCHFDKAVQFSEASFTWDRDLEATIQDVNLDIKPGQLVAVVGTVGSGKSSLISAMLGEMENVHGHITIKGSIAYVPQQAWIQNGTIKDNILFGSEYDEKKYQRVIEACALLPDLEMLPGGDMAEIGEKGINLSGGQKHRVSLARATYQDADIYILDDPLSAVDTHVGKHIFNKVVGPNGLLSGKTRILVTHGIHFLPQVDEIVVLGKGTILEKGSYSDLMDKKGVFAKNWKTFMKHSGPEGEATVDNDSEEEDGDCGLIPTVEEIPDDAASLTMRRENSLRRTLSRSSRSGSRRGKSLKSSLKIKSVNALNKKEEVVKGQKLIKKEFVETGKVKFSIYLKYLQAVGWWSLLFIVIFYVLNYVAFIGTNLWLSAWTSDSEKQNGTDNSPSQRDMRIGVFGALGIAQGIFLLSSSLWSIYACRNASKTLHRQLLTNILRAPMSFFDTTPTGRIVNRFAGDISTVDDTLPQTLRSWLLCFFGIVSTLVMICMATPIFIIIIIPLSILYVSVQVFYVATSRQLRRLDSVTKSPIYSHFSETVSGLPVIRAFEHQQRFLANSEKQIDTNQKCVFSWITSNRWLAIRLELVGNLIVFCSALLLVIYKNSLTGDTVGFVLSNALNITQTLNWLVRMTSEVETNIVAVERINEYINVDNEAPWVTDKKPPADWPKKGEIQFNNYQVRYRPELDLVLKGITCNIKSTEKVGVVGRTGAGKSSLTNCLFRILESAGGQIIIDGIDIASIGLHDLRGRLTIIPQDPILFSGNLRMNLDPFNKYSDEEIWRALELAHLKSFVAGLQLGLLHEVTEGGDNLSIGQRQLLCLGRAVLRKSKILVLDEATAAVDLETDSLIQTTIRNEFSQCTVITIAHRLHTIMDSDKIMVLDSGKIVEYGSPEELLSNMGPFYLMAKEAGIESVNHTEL
row,Activity,Compound
1,inducer [],C#C[C@]1(O)CC[C@H]2[C@@H]3CCC4=CC(=O)CCC4=C3[C@@H](c3ccc(N(C)C)cc3)C[C@]21C

# Target: ATP-binding cassette sub-family C member 3 (Mus musculus, UniProt B2RX12)
# Assay: as §1
# Type: functional, organism-based
# Sequence of ATP-binding cassette sub-family C member 3 (B2RX12 whole entry): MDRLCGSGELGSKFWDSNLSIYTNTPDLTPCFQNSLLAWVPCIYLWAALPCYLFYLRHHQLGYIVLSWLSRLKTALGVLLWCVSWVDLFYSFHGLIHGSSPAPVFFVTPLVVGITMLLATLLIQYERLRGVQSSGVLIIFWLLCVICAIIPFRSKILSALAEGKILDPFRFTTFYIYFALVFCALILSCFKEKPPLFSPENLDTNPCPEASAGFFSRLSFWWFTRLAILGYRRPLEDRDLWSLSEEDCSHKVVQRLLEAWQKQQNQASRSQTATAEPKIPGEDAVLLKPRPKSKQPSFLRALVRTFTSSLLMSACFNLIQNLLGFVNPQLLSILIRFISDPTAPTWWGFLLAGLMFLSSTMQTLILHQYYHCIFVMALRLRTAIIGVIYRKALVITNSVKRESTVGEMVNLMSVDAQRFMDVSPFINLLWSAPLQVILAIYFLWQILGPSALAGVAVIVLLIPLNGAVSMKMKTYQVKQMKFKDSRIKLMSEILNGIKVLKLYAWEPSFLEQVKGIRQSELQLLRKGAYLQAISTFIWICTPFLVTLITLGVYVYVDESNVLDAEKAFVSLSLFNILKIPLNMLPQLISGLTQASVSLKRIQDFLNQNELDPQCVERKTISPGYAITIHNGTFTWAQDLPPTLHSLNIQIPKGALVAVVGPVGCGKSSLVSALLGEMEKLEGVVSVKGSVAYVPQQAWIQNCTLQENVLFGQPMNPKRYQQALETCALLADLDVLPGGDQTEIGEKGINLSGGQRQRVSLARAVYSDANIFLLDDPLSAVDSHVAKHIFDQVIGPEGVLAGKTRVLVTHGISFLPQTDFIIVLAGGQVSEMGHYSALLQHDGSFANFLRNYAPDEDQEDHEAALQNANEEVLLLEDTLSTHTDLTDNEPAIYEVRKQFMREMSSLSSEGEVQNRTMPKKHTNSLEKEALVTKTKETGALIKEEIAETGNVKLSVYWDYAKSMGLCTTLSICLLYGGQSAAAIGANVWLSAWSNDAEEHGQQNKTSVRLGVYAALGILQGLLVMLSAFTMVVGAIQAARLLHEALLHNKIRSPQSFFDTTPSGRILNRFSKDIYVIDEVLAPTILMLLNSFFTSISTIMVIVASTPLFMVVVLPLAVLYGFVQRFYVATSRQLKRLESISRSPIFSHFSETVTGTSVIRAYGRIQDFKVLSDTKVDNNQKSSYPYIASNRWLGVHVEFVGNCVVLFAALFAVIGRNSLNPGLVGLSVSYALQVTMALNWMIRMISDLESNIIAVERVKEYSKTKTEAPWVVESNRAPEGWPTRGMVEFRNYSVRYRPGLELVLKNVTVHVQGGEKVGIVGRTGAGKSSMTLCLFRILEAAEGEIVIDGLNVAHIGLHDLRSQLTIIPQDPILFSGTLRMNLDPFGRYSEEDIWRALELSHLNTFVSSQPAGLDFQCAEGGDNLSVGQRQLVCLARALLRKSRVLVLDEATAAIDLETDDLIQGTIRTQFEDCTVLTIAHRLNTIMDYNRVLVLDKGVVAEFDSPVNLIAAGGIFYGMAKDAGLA
row,Compound,Activity
1,COC(=O)C1=C(C)NC(C)=C(C(=O)OC)C1c1ccccc1[N+](=O)[O-] [NIFEDIPINE],inducer []
2,CC(=O)[C@H]1[C@H](C#N)C[C@H]2[C@@H]3CC=C4C[C@@H](O)CC[C@]4(C)[C@H]3CC[C@@]21C [PREGNENOLONE CARBONITRILE],inducer []
3,C#C[C@]1(O)CC[C@H]2[C@@H]3CCC4=CC(=O)CCC4=C3[C@@H](c3ccc(N(C)C)cc3)C[C@]21C,inducer []
4,C[C@H](CCC(=O)O)[C@H]1CC[C@H]2[C@@H]3CC[C@@H]4C[C@H](O)CC[C@]4(C)[C@H]3CC[C@]12C [LITHOCHOLIC ACID],inducer []

# Other lines, results leading:
row,Activity,Compound
1,inducer [],CC(C)(C(=O)c1cccnc1)c1cccnc1 [METYRAPONE]
2,inducer [],Clc1ccccc1C(c1ccccc1)(c1ccccc1)n1ccnc1 [CLOTRIMAZOLE]
3,inducer [],CO[C@H]1/C=C/O[C@@]2(C)Oc3c(C)c(O)c4c(O)c(c(/C=N/N5CCN(C)CC5)c(O)c4c3C2=O)NC(=O)/C(C)=C\C=C\[C@H](C)[C@H](O)[C@@H](C)[C@@H](O)[C@@H](C)[C@H](OC(C)=O)[C@@H]1C [RIFAMPIN]
